Test results reported in patent US20060069132A1, “Azolecarboxamide herbicides” (priority 2004, published 2006).

Experiments:
wild oat = test: Test B postemergence herbicide test; format: in vivo, Avena fatua; settings: postemergence
Method in brief: (§1)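 Read-out: visual comparison with controls, scored 0 to 100, where 100 means complete control and 0 no effect. Formulated chemicals were applied postemergence to plants 2–18 cm tall (1- to 4-leaf), or to flooded-paddy plants at the 2-leaf stage, then held 13 to 15 days under glass.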

velvetleaf [1] = test: Test B pre-/postemergence herbicide test; format: in vivo, Abutilon theophrasti; settings: for Velvetleaf plant response rating: postemergence
Method in brief: (§2)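 Visual rating, 0 (no effect) to 100 (complete control), versus untreated controls after 13–15 d in greenhouse. Pre- and postemergence applications (postemergence plants 2–18 cm, 1–4 leaves); flooded paddy arm at 2-leaf stage. Compounds in non-phytotoxic solvent plus surfactant.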

barnyardgrass [2] = test: Test B pre-/postemergence herbicide test; format: in vivo, Echinochloa crus-galli; settings: for Barnyardgrass plant response rating: postemergence
Method in brief: (§3)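 Seeds were planted and treated preemergence with compounds formulated in a non-phytotoxic solvent mixture containing surfactant, while plants at the 1- to 4-leaf stage (2 to 18 cm) received postemergence sprays. Flooded paddy plants were grown to the 2-leaf stage. After 13 to 15 days in a greenhouse, injury was visually rated 0–100 against untreated controls.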

morningglory [3] = test: Test B pre-/postemergence herbicide test; format: in vivo, Ipomoea coccinea; settings: for Morningglory plant response rating: postemergence
Method in brief: as §3

[4] = tested on: small flower umbrella sedge; test: Test B flooded paddy test; format: in vivo, Cyperus difformis; settings: 1000 g ai/ha, scale 0 to 100 (0 no effect, 100 complete control)
Method in brief: (§4)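 Postemergence plants were sprayed with formulated test chemicals at 2 to 18 cm height (1- to 4-leaf stage); paddy species were grown to the 2-leaf stage. After 13 to 15 days in a greenhouse, injury was rated visually against untreated controls on a 0–100 scale (0 = no effect, 100 = complete control).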

blackgrass = test: Test B postemergence herbicide test; format: in vivo, Alopecurus myosuroides; settings: postemergence
Method in brief: as §4

wheat = test: Test B postemergence herbicide test; format: in vivo, Triticum aestivum; parameters: key to Wheat plant response rating: 0 = no effect, 100 = complete control; settings: postemergence
Method in brief: as §1

rice [5] = test: Test B flooded paddy test; format: in vivo, Oryza sativa; settings: 1000 g ai/ha, scale 0 to 100 (0 no effect, 100 complete control)
Method in brief: as §1

cocklebur = test: Test B pre-/postemergence herbicide test; format: in vivo, Xanthium strumarium; settings: for Cocklebur plant response rating: postemergence
Method in brief: as §3

pigweed = test: Test B pre-/postemergence herbicide test; format: in vivo, Amaranthus retroflexus; settings: for Pigweed plant response rating: postemergence
Method in brief: as §2

rice [6] = test: Test B pre-/postemergence herbicide test; format: in vivo, Oryza sativa; settings: 0 = no effect, 100 = complete control, preemergence
Method in brief: as §2

giant foxtail [7] = test: Test B pre-/postemergence herbicide test; format: in vivo, Setaria faberi; settings: for Foxtail, Giant plant response rating: postemergence
Method in brief: as §2

barnyardgrass [8] = test: Test A pre-/postemergence herbicide test; format: in vivo, Echinochloa crus-galli
Method in brief: (§5)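 Greenhouse injury scoring (0–100, complete control = 100) at approximately ten days follows simultaneous pre- and postemergence application. Soil received a directed spray after seeding; seedlings of 2–10 cm at the one- to two-leaf stage were sprayed to runoff.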

morningglory [9] = test: Test A pre-/postemergence herbicide test; format: in vivo, Ipomoea spp.
Method in brief: as §5

large crabgrass [10] = test: Test A pre-/postemergence herbicide test; format: in vivo, Digitaria sanguinalis
Method in brief: as §5

redroot pigweed = test: Test A pre-/postemergence herbicide test; format: in vivo, Amaranthus retroflexus
Method in brief: as §5

barnyardgrass [11] = test: Test B flooded paddy test; format: in vivo, Echinochloa crus-galli; settings: 1000 g ai/ha, scale 0 to 100 (0 no effect, 100 complete control)
Method in brief: as §4

corn = test: Test B pre-/postemergence herbicide test; format: in vivo, Zea mays; settings: for Corn plant response rating: postemergence
Method in brief: as §2

large crabgrass [12] = test: Test B pre-/postemergence herbicide test; format: in vivo, Digitaria sanguinalis; settings: for Crabgrass, Large plant response rating: postemergence
Method in brief: as §2

giant foxtail [13] = test: Test A pre-/postemergence herbicide test; format: in vivo, Setaria faberi
Method in brief: as §5

lambsquarters = test: Test B pre-/postemergence herbicide test; format: in vivo, Chenopodium album; settings: for Lambsquarters plant response rating: postemergence
Method in brief: as §2

Surinam grass = test: Test B pre-/postemergence herbicide test; format: in vivo, Urochloa decumbens; settings: for Surinam Grass plant response rating: postemergence
Method in brief: as §2

ducksalad = test: Test B flooded paddy test; format: in vivo, Heteranthera limosa; settings: 1000 g ai/ha, scale 0 to 100 (0 no effect, 100 complete control)
Method in brief: as §4

velvetleaf [14] = test: Test A pre-/postemergence herbicide test; format: in vivo, Abutilon theophrasti
Method in brief: as §5

[15] = 125 g ai/ha, visual rating, scale 0 (no effect) to 100 (complete control)
[16] = 500 g ai/ha, scale 0 to 100, 0 is no effect, 100 is complete control
[17] = 125 g ai/ha, 0 = no effect, 100 = complete control, preemergence
[18] = 500 g ai/ha, visual rating, 0 = no effect, 100 = complete control, preemergence
[19] = Postemergence, 500 g ai/ha, 0 to 100 scale, 0 no effect, 100 complete control
[20] = Postemergence, 2000 g ai/ha, 0 to 100 scale, 0 no effect, 100 complete control
[21] = Preemergence, 2000 g ai/ha, visual rating, 0 to 100 scale (0 no effect, 100 complete control)
[22] = preemergence, 500 g ai/ha, visual injury, 0 to 100 scale (0 no effect, 100 complete control)

C#CCNC(=O)c1ccc(F)c(NC(=O)c2cc(C(C)(C)C)nn2CC)n1 [Compound 279]
Oat, Wild plant response rating (wild oat; [15]): 20
Oat, Wild plant response rating (wild oat; [16]): 20
Velvetleaf plant response rating (0 to 100 scale) (velvetleaf [1]; [17]): 0
Plant response rating, Velvetleaf (velvetleaf [1]; [18]): 20
Velvetleaf plant response rating (velvetleaf [1]; [15]): 10
Velvetleaf plant response rating (velvetleaf [1]; [16]): 10
Barnyardgrass plant response rating (0 to 100 scale) (barnyardgrass [2]; [17]): 20
Plant response rating, Barnyardgrass (barnyardgrass [2]; [18]): 40
Barnyardgrass plant response rating (barnyardgrass [2]; [15]): 0
Barnyardgrass plant response rating (barnyardgrass [2]; [16]): 10
Morningglory plant response rating (0 to 100 scale) (morningglory [3]; [17]): 0
Plant response rating, Morningglory (morningglory [3]; [18]): 0
Morningglory plant response rating (morningglory [3]; [15]): 0
Morningglory plant response rating (morningglory [3]; [16]): 20
Sedge, Umbrella plant response rating [4]: 60
Blackgrass plant response rating (blackgrass; [15]): 10
Blackgrass plant response rating (blackgrass; [16]): 30
Wheat plant response rating (wheat; [15]): 30
Wheat plant response rating (wheat; [16]): 30
Rice plant response rating (rice [5]): 40
Cocklebur plant response rating (0 to 100 scale) (cocklebur; [17]): 0
Plant response rating, Cocklebur (cocklebur; [18]): 0
Cocklebur plant response rating (cocklebur; [15]): 0
Cocklebur plant response rating (cocklebur; [16]): 20
Pigweed plant response rating (0 to 100 scale) (pigweed; [17]): 90
Plant response rating, Pigweed (pigweed; [18]): 100
Pigweed plant response rating (pigweed; [15]): 30
Pigweed plant response rating (pigweed; [16]): 30
Rice plant response rating (0 to 100 scale) (rice [6]; 125 g ai/ha): 20
Plant response rating, Rice (rice [6]; 500 g ai/ha, visual rating): 50
Foxtail, Giant plant response rating (0 to 100 scale) (giant foxtail [7]; [17]): 10
Plant response rating, Foxtail, Giant (giant foxtail [7]; [18]): 30
Foxtail, Giant plant response rating (giant foxtail [7]; [15]): 0
Foxtail, Giant plant response rating (giant foxtail [7]; [16]): 0
Barnyardgrass plant response rating (barnyardgrass [8]; [19]): 20
Plant response rating, Barnyardgrass (barnyardgrass [8]; [20]): 40
Barnyardgrass plant response rating (barnyardgrass [8]; [21]): 55
Barnyardgrass plant response rating (barnyardgrass [8]; [22]): 5
Morningglory plant response rating (morningglory [9]; [19]): 5
Plant response rating, Morningglory (morningglory [9]; [20]): 5
Morningglory plant response rating (morningglory [9]; [21]): 20
Morningglory plant response rating (morningglory [9]; [22]): 10
Crabgrass, Large plant response rating (large crabgrass [10]; [19]): 10
Plant response rating, Crabgrass, Large (large crabgrass [10]; [20]): 20
Crabgrass, Large plant response rating (large crabgrass [10]; [21]): 70
Crabgrass, Large plant response rating (large crabgrass [10]; [22]): 70
Pigweed plant response rating (redroot pigweed; [19]): 70
Plant response rating, Pigweed (redroot pigweed; [20]): 60
Pigweed plant response rating (redroot pigweed; [21]): 100
Pigweed plant response rating (redroot pigweed; [22]): 95
Barnyardgrass plant response rating (barnyardgrass [11]): 10
Corn plant response rating (0 to 100 scale) (corn; [17]): 0
Plant response rating, Corn (corn; [18]): 0
Corn plant response rating (corn; [15]): 10
Corn plant response rating (corn; [16]): 10
Crabgrass, Large plant response rating (0 to 100 scale) (large crabgrass [12]; [17]): 10
Plant response rating, Crabgrass, Large (large crabgrass [12]; [18]): 80
Crabgrass, Large plant response rating (large crabgrass [12]; [15]): 0
Crabgrass, Large plant response rating (large crabgrass [12]; [16]): 10
Foxtail, Giant plant response rating (giant foxtail [13]; [19]): 10
Plant response rating, Foxtail, Giant (giant foxtail [13]; [20]): 20
Foxtail, Giant plant response rating (giant foxtail [13]; [21]): 60
Foxtail, Giant plant response rating (giant foxtail [13]; [22]): 25
Lambsquarters plant response rating (0 to 100 scale) (lambsquarters; [17]): 100
Plant response rating, Lambsquarters (lambsquarters; [18]): 100
Lambsquarters plant response rating (lambsquarters; [15]): 10
Lambsquarters plant response rating (lambsquarters; [16]): 20
Surinam Grass plant response rating (0 to 100 scale) (Surinam grass; [17]): 0
Plant response rating, Surinam Grass (Surinam grass; [18]): 40
Surinam Grass plant response rating (Surinam grass; [15]): 10
Surinam Grass plant response rating (Surinam grass; [16]): 10
Ducksalad plant response rating (ducksalad): 60
Velvetleaf plant response rating (velvetleaf [14]; [19]): 20
Plant response rating, Velvetleaf (velvetleaf [14]; [20]): 20
Velvetleaf plant response rating (velvetleaf [14]; [21]): 30
Velvetleaf plant response rating (velvetleaf [14]; [22]): 10
